From patent publication US20050043378A1, “LTA4H modulators” (priority 2003, published 2005) come the findings set out here.

Structures are written as SMILES.

The target of the assay is T1, recombinant human LTA4 hydrolase (rhLTA4H) (Homo sapiens, UniProt P09960).
T1 construct: made in house; host or cells: Spodoptera frugiperda (Sf-9) cells, baculovirus (pFastBac1)
T1 sequence (P09960 1-611): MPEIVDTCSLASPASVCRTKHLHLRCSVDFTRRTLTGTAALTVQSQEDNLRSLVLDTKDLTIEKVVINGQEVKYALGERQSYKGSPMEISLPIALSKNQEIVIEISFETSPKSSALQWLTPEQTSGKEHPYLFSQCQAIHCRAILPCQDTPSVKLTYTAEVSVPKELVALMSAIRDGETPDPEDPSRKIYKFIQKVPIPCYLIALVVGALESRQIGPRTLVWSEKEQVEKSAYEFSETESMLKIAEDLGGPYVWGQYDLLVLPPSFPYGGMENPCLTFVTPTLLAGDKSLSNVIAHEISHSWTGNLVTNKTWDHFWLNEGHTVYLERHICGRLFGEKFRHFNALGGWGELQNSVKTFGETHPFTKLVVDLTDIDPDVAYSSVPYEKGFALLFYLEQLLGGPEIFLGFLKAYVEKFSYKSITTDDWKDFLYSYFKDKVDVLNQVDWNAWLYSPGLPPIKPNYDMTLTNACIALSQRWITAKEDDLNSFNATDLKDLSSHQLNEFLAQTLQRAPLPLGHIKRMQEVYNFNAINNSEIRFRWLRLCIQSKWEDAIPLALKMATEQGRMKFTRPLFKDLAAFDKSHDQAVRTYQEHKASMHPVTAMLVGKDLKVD
Put plainly: Recombinant human LTA4 hydrolase assay for LTA4 hydrolase inhibitor activity.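 Also: enzyme expressed in Sf-9 insect cells, compound preincubated 10 min with enzyme, 10 min reaction at room temperature, uninhibited reaction as positive control, enzyme-free blank as negative control.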 The format is biochemical. Conditions: LTA4 substrate, LTB4 by immunoassay, average of one to three determinations.
In general, IC50 refers to the point on the concentration scale where inhibition reaches its midpoint. Take `CCN(CC)CCOc1ccc(Oc2nc3ccc(Cl)cc3s2)cc1` [Example 12, {2-[4-(6-Chloro-benzothiazol-2-yloxy)-phenoxy]-ethyl}-diethyl-amine]: the IC50 came to 100 nM.

For `O=C1NCCC12CCN(CCOc1ccc(Oc3nc4ccccc4s3)cc1)CC2` [Example 25, 8-{2-[4-(Benzothiazol-2-yloxy)-phenoxy]-ethyl}-2,8-diaza-spiro[4.5]decan-1-one], the IC50 was 4 nM.

As to `NC(=O)C1CCCN(CCc2ccc(Oc3nc4ccccc4s3)cc2)C1` (stereo not shown) [Example 31, 1-{2-[4-(Benzothiazol-2-yloxy)-phenyl]-ethyl}-piperidine-3-carboxylic acid amide], the 50% inhibitory concentration (IC50) turned out to be 17 nM.

As for `OC1CCN(CCCc2ccc(Oc3nc4ccccc4o3)cc2)CC1` [Example 36, 1-{3-[4-(Benzooxazol-2-yloxy)-phenyl]-propyl}-piperidin-4-ol], the IC50 was 14 nM.

With `OC1(c2ccccc2)CCN(CCOc2ccc(Oc3nc4ccccc4[nH]3)cc2)CC1` [Example 37, 1-{2-[4-(1H-Benzoimidazol-2-yloxy)-phenoxy]-ethyl}-4-phenyl-piperidin-4-ol], the IC50 worked out at 10 nM.

For the compound `CN(C)CCCOc1ccc(Oc2nc3ccccc3o2)cc1` [Example 45, {3-[4-(Benzooxazol-2-yloxy)-phenoxy]-propyl}-dimethyl-amine], the IC50 stood at 15 nM.

For the compound `OC1(c2ccc(Cl)cc2)CCN(CCOc2ccc(Oc3nc4ccccc4o3)cc2)CC1` [Example 59, 1-{2-[4-(Benzooxazol-2-yloxy)-phenoxy]-ethyl}-4-(4-chloro-phenyl)-piperidin-4-ol], the IC50 worked out at 5 nM.

In the case of `c1ccc2oc(Oc3ccc(OCCN4CCC4)cc3)nc2c1` [Example 77, 2-[4-(2-Azetidin-1-yl-ethoxy)-phenoxy]-benzooxazole], the concentration for half-maximal inhibition (IC50) amounted to 10 nM.

With `O=C(Cc1ccccc1)NC1CCN(CCOc2ccc(Oc3nc4ccccc4o3)cc2)CC1` [Example 78, N-(1-{2-[4-(Benzooxazol-2-yloxy)-phenoxy]-ethyl}-piperidin-4-yl)-2-phenyl-acetamide], the IC50 came out at 3 nM.

In the case of `c1ccc2sc(Oc3ccc(OCCN4CCC(N5CCCCC5)CC4)cc3)nc2c1` [Example 80, 1′-{2-[4-(Benzothiazol-2-yloxy)-phenoxy]-ethyl}-[1,4′]bipiperidine], the IC50 stood at 23 nM.

With `CCCN(CCc1ccc(Oc2nc3ccccc3o2)cc1)CC1CC1` [Example 92, {2-[4-(Benzooxazol-2-yloxy)-phenyl]-ethyl}-cyclopropylmethyl-propyl-amine], the IC50 worked out at 1 nM.

Turning to `O=C(Cc1ccccc1)NC1CCN(CCc2ccc(Oc3nc4ccccc4s3)cc2)CC1` [Example 110, N-(1-{2-[4-(Benzothiazol-2-yloxy)-phenyl]-ethyl}-piperidin-4-yl)-2-phenyl-acetamide], the IC50 was 40 nM.

Consider `CCN(CCc1ccc(Oc2nc3ccccc3[nH]2)cc1)C1CCCCC1` [Example 123, {2-[4-(1H-Benzoimidazol-2-yloxy)-phenyl]-ethyl}-cyclohexyl-ethyl-amine], for which the IC50 amounted to 4 nM.

As to `OC(COc1ccc(Oc2nc3ccccc3o2)cc1)CN1CCCC1` (stereo not shown) [Example 135, 1-[4-(Benzooxazol-2-yloxy)-phenoxy]-3-pyrrolidin-1-yl-propan-2-ol], the IC50 was 92 nM.

Turning to `c1ccc(Cn2nnnc2C2CCN(CCOc3ccc(Oc4nc5ccccc5s4)cc3)CC2)cc1` [Example 143, 2-(4-{2-[4-(1-Benzyl-1H-tetrazol-5-yl)-piperidin-1-yl]-ethoxy}-phenoxy)-benzothiazole], the half-maximal inhibitory concentration (IC50) came to 64 nM.

As to `c1ccc2sc(Oc3ccc(CCN4CCN(CCN5CCOCC5)CC4)cc3)nc2c1` [Example 146, 2-(4-{2-[4-(2-Morpholin-4-yl-ethyl)-piperazin-1-yl]-ethyl}-phenoxy)-benzothiazole], the IC50 is 43 nM.

For `NC(=O)C1CCN(CCOc2ccc(Cc3nc4ccccc4s3)cc2)CC1` [Example 147, 1-[2-(4-Benzothiazol-2-ylmethyl-phenoxy)-ethyl]-piperidine-4-carboxylic acid amide], the IC50 is 33 nM.

As to `O=C(CN1CCN(CCOc2ccc(Oc3nc4ccccc4s3)cc2)CC1)N1CCCC1` [Example 153, 2-(4-{2-[4-(Benzothiazol-2-yloxy)-phenoxy]-ethyl}-piperazin-1-yl)-1-pyrrolidin-1-yl-ethanone], the IC50 stood at 8 nM.

Consider `O=C(O)CC1CCCN(CCc2ccc(Oc3nc4ccccc4s3)cc2)C1` (stereo not shown) [Example 157, (1-{2-[4-(Benzothiazol-2-yloxy)-phenyl]-ethyl}-piperidin-3-yl)-acetic acid], for which the IC50 was determined as 1 nM.

With `O=C(O)CN1CCN(CCOc2ccc(Oc3nc4ccccc4s3)cc2)CC1` [Example 163, (4-{2-[4-(Benzothiazol-2-yloxy)-phenoxy]-ethyl}-piperazin-1-yl)-acetic acid], the IC50 is 9 nM.

In the case of `Oc1ccc(N2CCN(CCOc3ccc(Oc4nc5ccccc5s4)cc3)CC2)cc1` [Example 167, 4-(4-{2-[4-(Benzothiazol-2-yloxy)-phenoxy]-ethyl}-piperazin-1-yl)-phenol], the IC50 is 37 nM.

Turning to `O=S(=O)(c1ccc(Cl)cc1)N(C1CC1)C1CCN(CCOc2ccc(Oc3nc4ccccc4s3)cc2)CC1` [Example 168, N-(1-{2-[4-(Benzothiazol-2-yloxy)-phenoxy]-ethyl}-piperidin-4-yl)-4-chloro-N-cyclopropyl-benzene sulfonamide], the IC50 was found to be 27 nM.

In the case of `CC(C)(C)OC(=O)N1CCC(c2nnnn2CCOc2ccc(Oc3nc4ccccc4s3)cc2)CC1` [Example 176, 4-(1-{2-[4-(Benzothiazol-2-yloxy)-phenoxy]-ethyl}-1H-tetrazol-5-yl)-piperidine-1-carboxylic acid tert-butyl ester], the IC50 is 12 nM.

`O=C(O)[C@@H]1CCCN(CCc2ccc(Oc3nc4ccccc4s3)cc2)C1` [Example 183, (R)-1-{2-[4-(Benzothiazol-2-yloxy)-phenyl]-ethyl}-piperidine-3-carboxylic acid]: the half-inhibitory concentration (IC50) came out at 18 nM.

As to `O=C(O)CCN(CCc1ccc(Oc2nc3ccccc3s2)cc1)Cc1ccccc1` [Example 192, 3-({2-[4-(Benzothiazol-2-yloxy)-phenyl]-ethyl}-benzyl-amino)-propionic acid], the IC50 came to 3 nM.

With `O=C(C1CCN(CCOc2ccc(Oc3nc4ccccc4s3)cc2)CC1)N1CCN(CCO)CC1` [Example 195, (1-{2-[4-(Benzothiazol-2-yloxy)-phenoxy]-ethyl}-piperidin-4-yl)-[4-(2-hydroxy-ethyl)-piperazin-1-yl]-methanone], the IC50 turned out to be 58 nM.

As for `O=C(O)CCC1CCN(CCc2ccc(Oc3nc4ccccc4s3)cc2)CC1` [Example 202, 3-(1-{2-[4-(Benzothiazol-2-yloxy)-phenyl]-ethyl}-piperidin-4-yl)-propionic acid], the IC50 was 4 nM.

As for `O=C(O)C1CC1CN(CCc1ccc(Oc2nc3ccccc3s2)cc1)C1CC1` (stereo not shown) [Example 211, 2-[({2-[4-(Benzothiazol-2-yloxy)-phenyl]-ethyl}-cyclopropyl-amino)-methyl]-cyclopropanecarboxylic acid], the IC50 turned out to be 9 nM.

Regarding `NC(=O)CCN(CCc1ccc(Oc2nc3ccccc3s2)cc1)C1CC1` [Example 214, 3-({2-[4-(Benzothiazol-2-yloxy)-phenyl]-ethyl}-cyclopropyl-amino)-propionamide], the IC50 is 18 nM.

Take `c1ccc2sc(Oc3ccc(OCCn4cnnn4)cc3)nc2c1` [Example 224, 2-[4-(2-Tetrazol-1-yl-ethoxy)-phenoxy]-benzothiazole]: the IC50 was found to be 14 nM.

For the compound `O=C(O)[C@@H]1CCCC[C@H]1NCCc1ccc(Oc2nc3ccccc3s2)cc1` [Example 225, (1 R,2R)-2-{2-[4-(Benzothiazol-2-yloxy)-phenyl]-ethylamino}-cyclohexanecarboxylic acid], the IC50 was found to be 25 nM.

As for `c1ccc2[nH]c(Oc3ccc(CCN4CCCCC4)cc3)nc2c1` [Example 230, 2-[4-(2-Piperidin-1-yl-ethyl)-phenoxy]-1H-benzoimidazole], the IC50 came out at 36 nM.

As for `O=C1CCCN1C1CCN(CCOc2ccc(Oc3nc4ccccc4[nH]3)cc2)CC1` [Example 231, 1-(1-{2-[4-(1H-Benzoimidazol-2-yloxy)-phenoxy]-ethyl}-piperidin-4-yl)-pyrrolidin-2-one], the IC50 stood at 18 nM.

As to `CN(C1CCN(Cc2ccc(Oc3nc4ccccc4s3)cc2)CC1)S(C)(=O)=O` [Example 255, N-{1-[4-(Benzothiazol-2-yloxy)-benzyl]-piperidin-4-yl}-N-methyl-methanesulfonamide], the IC50 stood at 1 nM.

For the compound `c1ccc2sc(Oc3ccc(CCN4CCC(c5nnn[nH]5)CC4)cc3)nc2c1` [Example 262, 2-(4-{2-[4-(1H-Tetrazol-5-yl)-piperidin-1-yl]-ethyl}-phenoxy)-benzothiazole], the IC50 worked out at 4 nM.

`OCC1CCCN(CCOc2ccc(Oc3nc4ccccc4s3)cc2)C1` (stereo not shown) [Example 265, (1-{2-[4-(Benzothiazol-2-yloxy)-phenoxy]-ethyl}-piperidin-3-yl)-methanol]: the IC50 came to 112 nM.

For the compound `c1ccc2sc(Oc3ccc(OCCN4CCC(c5nnn[nH]5)CC4)cc3)nc2c1` [Example 270, 2-(4-{2-[4-(1H-Tetrazol-5-yl)-piperidin-1-yl]-ethoxy}-phenoxy)-benzothiazole], the IC50 is 16 nM.
